From BindingDB's records for doi:10.1021/jm8008629 (Wayne State University, 2008) come the findings set out here.

Assay [1] has as its target D(2) dopamine receptor (Rattus norvegicus, UniProt P61169). In words: Displacement of [3H]Spiperone from rat dopamine D2L receptor expressed in HEK293 cells. (In a radioligand displacement assay an active substance lowers the binding of a labelled ligand.)
Assay [2] addresses D(3) dopamine receptor (Rattus norvegicus, UniProt P19020). As to the kind of experiment: Displacement of [3H]Spiperone from rat dopamine D3 receptor expressed in HEK293 cells.

One may read the Ki as a dissociation constant, usually derived from enzyme kinetics or from competition with a known ligand. High values mean a looser hold on the target, low ones a stronger hold on the target.

D(2) dopamine receptor, sequence (P61169 whole entry): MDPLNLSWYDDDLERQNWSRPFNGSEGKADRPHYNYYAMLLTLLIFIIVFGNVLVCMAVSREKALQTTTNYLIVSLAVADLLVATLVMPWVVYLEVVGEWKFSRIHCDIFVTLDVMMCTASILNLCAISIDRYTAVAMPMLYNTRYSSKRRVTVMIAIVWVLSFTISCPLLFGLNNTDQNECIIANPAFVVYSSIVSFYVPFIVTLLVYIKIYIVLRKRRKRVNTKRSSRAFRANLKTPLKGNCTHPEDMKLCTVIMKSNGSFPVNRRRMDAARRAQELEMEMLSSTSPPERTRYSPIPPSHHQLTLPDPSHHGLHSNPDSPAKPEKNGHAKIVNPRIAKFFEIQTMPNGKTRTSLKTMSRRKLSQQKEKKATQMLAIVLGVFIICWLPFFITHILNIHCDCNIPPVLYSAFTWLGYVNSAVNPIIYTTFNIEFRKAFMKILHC
D(3) dopamine receptor, sequence (P19020 whole entry): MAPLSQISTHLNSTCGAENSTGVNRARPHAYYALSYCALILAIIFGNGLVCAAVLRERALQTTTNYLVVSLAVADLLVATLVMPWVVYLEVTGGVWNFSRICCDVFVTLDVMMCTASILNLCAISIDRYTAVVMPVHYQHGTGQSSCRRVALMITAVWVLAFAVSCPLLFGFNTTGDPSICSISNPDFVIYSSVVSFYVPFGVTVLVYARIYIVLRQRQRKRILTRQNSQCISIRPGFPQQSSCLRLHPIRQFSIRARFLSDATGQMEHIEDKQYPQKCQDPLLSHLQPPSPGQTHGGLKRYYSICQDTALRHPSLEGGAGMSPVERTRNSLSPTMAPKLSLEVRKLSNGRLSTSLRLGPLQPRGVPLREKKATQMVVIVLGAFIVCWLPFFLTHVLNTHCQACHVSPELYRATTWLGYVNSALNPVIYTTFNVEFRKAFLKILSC

Take `Oc1ccc2c(c1)C[C@@H]1[C@@H](CCCN1CCN1CCN(c3ccccc3)CC1)C2` (racemic) [(+/-)-cis-1-[2-(4-Phenylpiperazin-1-yl)ethyl]-1,2,3,4,4a,5,10,10a-octahydrobenzo[g]quinolin-8-ol]: the Ki is 3.33 µM in assay [1] and 0.419 µM in assay [2].
